Patent US4326054A, “Cleomycins and process for producing same” (Zaidan Hojin Biseibutsu Kagaku Kenkyu Kai, priority 1979, dated 1982)

Experiments:
HeLa S3 cells = assay: Activity on cultured HeLa S3 cells (growth inhibition); format: cell-based
Method: Fifty percent inhibitory cocentration (LD50) was determined on a test compound cleomycin (No. 33) and on a reference compound bleomycin A2, from the percent of growth inhibition measured on HeLa S3 cells after the cells had been cultured in the presence of each of the compounds.

[1] = tested on: Mycobacterium smegmatis ATCC 607; assay: Antimicrobial activity, agar plate-cylinder method, bleomycin A2 as standard (1,000 u/mg); format: cell-based; details: Examples, Step A; hydrochloride, copper-containing form; bleomycin A2 = 1,000 u/mg
[2] = tested on: Mycobacterium smegmatis ATCC 607; assay: as above; format: cell-based; details: copper-free form; for Antimicrobial potency: bleomycin A2 = 1,000 u/mg; for Antimicrobiral potency: Table 5, relative to bleomycin A2 = 1,000 u/mg
Method: Typical examples of the biological activities measured on cleomycins (copper-free form) are illustrated below.
Comparison was made with the relevant antibiotics bleomycins. The relative antimicrobial potency (u/mg) against Mycobacterium smegmatis ATCC 607 was measured by agar plate-cylinder method using bleomycin A2 as a standard (1,000 u/mg).
(Note: The antimicrobial potency was determined by taking bleomycin
A2 as 1,000 μ/mg and using Mycobacterium smegmatis ATCC 607 as a
test bacterium. Herinafter, the same was applied.)

[3] = Solubility (physical and chemical properties, Tables 4-1 and 4-2); details: hydrochloride, also soluble in dimethylformamide, dimethylsulfoxide, and methanol
[4] = Examples, Step B, hydrochloride

Question: With `Cc1c(N)nc(C(CC(N)=O)NCC(N)C(N)=O)nc1C(=O)NC(C(=O)NC(C)C(O)C(C)C(=O)NC(C(=O)NCCc1nc(-c2nc(C(=O)NCCC[S+](C)C)cs2)cs1)C(C)O)C(OC1OC(CO)C(O)C(O)C1OC1OC(CO)C(O)C(OC(N)=O)C1O)c1cnc[nH]1` (stereo not shown) [Bleomycin A2, reference compound] as the compound, how does the IC50 (HeLa S3 cells; Homo sapiens, HeLa S3, read-out: LD50 (fifty percent inhibitory concentration, growth inhibition)) read?
Answer: 0.73 µg/mL

Question: Which results are given for `Cc1c(N)nc(C(CC(N)=O)NCC(N)C(N)=O)nc1C(=O)NC(C(=O)NC(C)C(O)C(C)C(=O)NC(C(=O)NCCc1nc(-c2nc(C(=O)NCCCNCCCCN)cs2)cs1)C1(O)CC1)C(OC1OC(CO)C(O)C(O)C1OC1OC(CO)C(O)C(OC(N)=O)C1O)c1cnc[nH]1` (stereo not shown)?
Answer: Antimicrobial potency [1]: 3,520 u/mg; Antimicrobial potency [2, 4]: 3,575 u/mg

Question: With `CCCCNCCCNCCCNC(=O)c1csc(-c2csc(CCNC(=O)C(NC(=O)C(C)C(O)C(C)NC(=O)C(NC(=O)c3nc(C(CC(N)=O)NCC(N)C(N)=O)nc(N)c3C)C(OC3OC(CO)C(O)C(O)C3OC3OC(CO)C(O)C(OC(N)=O)C3O)c3cnc[nH]3)C3(O)CC3)n2)n1` (stereo not shown) [compound 11, 3-(3-n-butylaminopropylamino)propylaminocleomycin] as the compound, how does the Solubility ([3]; copper-containing form) read?
Answer: Soluble in water

Question: What about the Solubility ([3]; copper-free form) of the same compound?
Answer: Soluble in water

Question: And the Antimicrobiral potency [2]?
Answer: 7,942 u/mg

Question: What does the source list for `Cc1c(N)nc(C(CC(N)=O)NCC(N)C(N)=O)nc1C(=O)NC(C(=O)NC(C)C(O)C(C)C(=O)NC(C(=O)NCCc1nc(-c2nc(C(=O)NCCC[S+](C)C)cs2)cs1)C1(O)CC1)C(OC1OC(CO)C(O)C(O)C1OC1OC(CO)C(O)C(OC(N)=O)C1O)c1cnc[nH]1` (stereo not shown) [compound 1, 3-s,s-dimethylmercaptopropylaminocleomycin]?
Answer: Antimicrobial potency [1]: 1,360 u/mg; Solubility ([3]; copper-containing form): Soluble in water; Solubility ([3]; copper-free form): Soluble in water; Antimicrobial potency [2, 4]: 1,320 u/mg; Antimicrobiral potency [2]: 1,320 u/mg

Question: With `Cc1c(N)nc(C(CC(N)=O)NCC(N)C(N)=O)nc1C(=O)NC(C(=O)NC(C)C(O)C(C)C(=O)NC(C(=O)NCCc1nc(-c2nc(C(=O)NCCCNC(C)c3ccccc3)cs2)cs1)C1(O)CC1)C(OC1OC(CO)C(O)C(O)C1OC1OC(CO)C(O)C(OC(N)=O)C1O)c1cnc[nH]1` (stereo not shown) [Compound No. 33, 3-[(s)-1'-phenylethylamino]propylaminocleomycin] as the compound, how does the Antimicrobial potency [1] read?
Answer: 11,300 u/mg

Question: And the “anti-HeLa action compared with bleomycin A2 (in words)” value (HeLa S3 cells; copper-free hydrochloride)?
Answer: activity nearly equal to that of bleomycin A2

Question: What about the Antimicrobial potency ([2]; Example 1, Step B, sulfate) of the same compound?
Answer: 10,949 u/mg

Question: What about the Antimicrobiral potency [2] of the same compound?
Answer: 10,949 u/mg

Question: For `Cc1c(N)nc(C(CC(N)=O)NCC(N)C(N)=O)nc1C(=O)NC(C(=O)NC(C)C(O)C(C)C(=O)NC(C(=O)NCCc1nc(-c2nc(C(=O)NCCCCNC(=N)N)cs2)cs1)C1(O)CC1)C(OC1OC(CO)C(O)C(O)C1OC1OC(CO)C(O)C(OC(N)=O)C1O)c1cnc[nH]1` (stereo not shown) [4-guanidinobutylaminocleomycin], which Antimicrobial potency [1] is on record?
Answer: 3,350 u/mg

Question: What about the Antimicrobial potency [2, 4] of the same compound?
Answer: 3,262 u/mg

Question: Which Antimicrobial potency [1] does the source give for `Cc1c(N)nc(C(CC(N)=O)NCC(N)C(N)=O)nc1C(=O)NC(C(=O)NC(C)C(O)C(C)C(=O)NC(C(=O)NCCc1nc(-c2nc(C(=O)NCCCN(C)CCCN)cs2)cs1)C1(O)CC1)C(OC1OC(CO)C(O)C(O)C1OC1OC(CO)C(O)C(OC(N)=O)C1O)c1cnc[nH]1` (stereo not shown) [Compound No. 20, 3-[N-methyl-N-(3-aminopropyl)]aminopropylaminocleomycin] here?
Answer: 2,300 u/mg

Question: What about the Antimicrobial potency [2, 4] of the same compound?
Answer: 2,273 u/mg

Question: And the Antimicrobiral potency [2]?
Answer: 2,273 u/mg

Question: With `CCCCNCCCNCCCNC(=O)c1csc(-c2csc(CCNC(=O)C(NC(=O)C(C)C(O)C(C)NC(=O)C(NC(=O)c3nc(C(CC(N)=O)NCC(N)C(N)=O)nc(N)c3C)C(OC3OC(CO)C(O)C(O)C3OC3OC(CO)C(O)C(OC(N)=O)C3O)c3cnc[nH]3)C3(O)CC3)n2)n1` (stereo not shown) as the compound, how does the Antimicrobial potency [1] read?
Answer: 8,130 u/mg

Question: And the Antimicrobial potency [2, 4]?
Answer: 7,942 u/mg
